How the values were obtained:
PI3Kdelta = PI3Kdelta (Homo sapiens (Human), UniProt O00329); assay: HTRF PI3K biochemical assay, delta isoform; conditions: 0.3 nM enzyme, 100 uM ATP, 5 uM PIP2, form screened: Neutral
Excerpt: (§1) HTRF PI3K Biochemical Assay to Measure Intrinsic Potency of Compound Inhibitors
(§2) The PI3-Kinase biochemical assays were developed to measure the intrinsic potency and compound dependent inhibition of the alpha, beta, delta, and gamma PI3K isoform enzymes.
(§3) This assay was developed and further optimized from a kit produced by Upstate (Millipore catalog #33-047) and has been configured for HTS (high throughput screening) and SAR screening. Briefly, this procedure exploits the exquisite specificity and high affinity binding of enzyme reaction substrate phosphatidyl(3,4,5)triphosphate (PIP3) to the GRP1 pleckstrin homology (PH) domain to generate the signal. In the absence of PIP3, an HTRF (Homogeneous Time-Resolved Fluorescence energy transfer) complex is formed consisting of europium (Eu)-labeled anti-GST, GSTtagged GRP1-PH domain, biotin-PIP3 and streptavidin conjugated APC. The native PIP3 produced by PI3-Kinase activity disrupts in a competitive manner the biotin-PIP3 from the PH domain, resulting in the loss of energy transfer (HTRF complex) and a decrease in the signal. The format of this assay is the same for all 4 isoforms of PI3K; the differences lie in the concentration of enzyme used to achieve robust assay window. The alpha, beta, and delta assays are run at 0.5, 1, and 0.3 nM enzymes and the gamma assay is run at 5 nM enzyme. The ATP concentration is 100 uM in the alpha, beta, and delta assays and 50 uM ATP in the gamma assay. All reactions are run at 5 uM PIP2.
(§4) Compounds are serially diluted (3-fold in 100% DMSO) across a 384-well polypropylene source plated from column 3 to column 12 and column 13 to column 22, to yield 10 concentration dose response for each test compound. Columns 1, 2, 23 and 24 contain either only DMSO or pharmacological known control inhibitor. Once titrations are made, 2.5 nL of the compounds on 384 well plates are reformatted and transferred by acoustic dispense in quadruplicates to a 1536 assay plate (Greiner) to assay across all four PI3K isoform enzymes.
(§5) The PI3-Kinase biochemical assay was optimized using the HTRF kit provided by Upstate (Millipore). The assay kit contains six reagents: 1) 4× Reaction Buffer; 2) native PIP2 (substrate); 3) Stop (EDTA); 4) Detection Mix A (Streptavidin-APC); 5) Detection Mix B (Eu-labeled Anti-GST plus GST-tagged PH-domain); 6) Detection Mix C. In addition, the following items were obtained or purchased; PI3Kinase (alpha 14-602, beta 14-603, gamma 14-558 and delta 14-604 from Upstate; Millipore), dithiothreitol (Sigma, D-5545), Adenosine-5′ triphosphate (InVitrogen, Cat#AS001A), native PIP3 (PI(3,4,5)P3, diC8, H^+, CELLSIGNALS, INC. Cat #907) DMSO (Sigma, 472301).
(§6) PI3Kinase Reaction Buffer is prepared by dilution the stock 1:4 with de-ionized water. DTT, PIP2 and Biotin-PIP3 were added to 1536 assay plate at a final concentration of 5 mM, […] on the day of use. Enzyme addition and compound pre-incubation are initiated by the addition of 1.25 ul of PI3K (at twice its final concentration) in the 1× reaction buffer to all wells using a BioRaptor. Plates are incubated at RT for 15 minutes. Reactions are initiated by addition of 1.25 ul of 2× substrate solution (PIP2 and ATP in 1× reaction buffer) using BioRaptor. Plates are incubated in humidified chamber at RT for one hour. Reactions are quenched by addition of 0.625 uL of stop solution to all wells using the BioRaptor. The quenched reactions are then processed to detect product formation by adding 0.625 uL of Detection Solution to all wells using the BioRaptor (Detection mix C, Detection Mix A, and Detection Mix B combined together in an 18:1:1 ratio prepared 2 hours prior to use). Following a one hour incubation in the dark, the HTRF signal is measured on the Envision plate reader set for 330 nm excitation and dual emission detection at 620 nM (Eu) and 665 nM (APC).

PI3Kalpha = PI3Kalpha (Homo sapiens (Human), UniProt P42336); assay: HTRF PI3K biochemical assay, alpha isoform (selectivity versus PI3Kalpha); conditions: relative ratio (PI3K-alpha IC50 value/PI3K-delta IC50 value); form screened: Neutral
PI3Kalpha, sequence (P42336 whole entry, canonical isoform): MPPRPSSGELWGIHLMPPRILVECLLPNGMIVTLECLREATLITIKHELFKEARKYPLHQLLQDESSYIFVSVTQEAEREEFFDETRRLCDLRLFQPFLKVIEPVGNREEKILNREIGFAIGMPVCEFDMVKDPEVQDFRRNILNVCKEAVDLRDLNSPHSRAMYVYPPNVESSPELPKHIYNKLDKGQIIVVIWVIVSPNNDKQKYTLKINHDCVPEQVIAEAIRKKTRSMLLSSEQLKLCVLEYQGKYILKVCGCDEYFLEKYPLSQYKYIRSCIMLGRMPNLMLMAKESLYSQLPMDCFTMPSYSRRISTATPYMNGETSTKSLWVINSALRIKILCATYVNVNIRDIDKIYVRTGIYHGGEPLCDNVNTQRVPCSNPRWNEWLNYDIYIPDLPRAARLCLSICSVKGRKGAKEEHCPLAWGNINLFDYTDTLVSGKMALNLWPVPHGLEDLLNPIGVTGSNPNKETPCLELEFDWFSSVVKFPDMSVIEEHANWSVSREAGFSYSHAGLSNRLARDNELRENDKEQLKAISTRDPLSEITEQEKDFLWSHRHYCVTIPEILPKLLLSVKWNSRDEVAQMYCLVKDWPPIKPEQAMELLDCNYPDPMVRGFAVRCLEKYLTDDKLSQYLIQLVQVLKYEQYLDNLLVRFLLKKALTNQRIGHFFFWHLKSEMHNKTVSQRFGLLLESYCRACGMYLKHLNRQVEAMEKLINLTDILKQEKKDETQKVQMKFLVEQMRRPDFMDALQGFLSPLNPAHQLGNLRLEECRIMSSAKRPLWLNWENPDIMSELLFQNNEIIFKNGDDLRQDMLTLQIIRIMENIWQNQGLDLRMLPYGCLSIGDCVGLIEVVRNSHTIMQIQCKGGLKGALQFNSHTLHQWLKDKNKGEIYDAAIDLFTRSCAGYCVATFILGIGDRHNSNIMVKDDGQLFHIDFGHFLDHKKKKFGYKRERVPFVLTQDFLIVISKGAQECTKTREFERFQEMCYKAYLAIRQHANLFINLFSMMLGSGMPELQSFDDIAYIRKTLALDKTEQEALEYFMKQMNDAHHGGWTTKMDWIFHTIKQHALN
PI3Kalpha, sequence (P27986 whole entry partner, canonical isoform): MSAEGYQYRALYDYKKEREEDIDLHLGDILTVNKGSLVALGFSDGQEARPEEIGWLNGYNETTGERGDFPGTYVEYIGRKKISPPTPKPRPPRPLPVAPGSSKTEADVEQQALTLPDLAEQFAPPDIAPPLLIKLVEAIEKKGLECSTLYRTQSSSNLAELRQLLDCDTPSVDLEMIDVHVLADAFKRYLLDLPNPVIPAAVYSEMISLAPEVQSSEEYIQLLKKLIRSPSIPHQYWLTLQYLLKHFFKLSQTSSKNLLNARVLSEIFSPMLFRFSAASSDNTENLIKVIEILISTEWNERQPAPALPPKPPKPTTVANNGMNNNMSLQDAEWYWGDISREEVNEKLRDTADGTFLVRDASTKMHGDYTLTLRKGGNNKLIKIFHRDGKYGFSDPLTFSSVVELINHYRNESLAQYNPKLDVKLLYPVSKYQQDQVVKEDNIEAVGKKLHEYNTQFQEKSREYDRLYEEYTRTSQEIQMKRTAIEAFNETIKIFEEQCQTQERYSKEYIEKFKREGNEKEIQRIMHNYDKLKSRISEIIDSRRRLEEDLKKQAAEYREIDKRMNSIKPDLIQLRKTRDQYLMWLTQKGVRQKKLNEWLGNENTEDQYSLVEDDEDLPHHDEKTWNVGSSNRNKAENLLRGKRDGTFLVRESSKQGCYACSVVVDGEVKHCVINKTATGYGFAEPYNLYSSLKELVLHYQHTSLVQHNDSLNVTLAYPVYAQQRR
Excerpt: as §1, §2, §3, §4, §5
as §6, with “[…]. […]” for “(APC).”

PI3Kdelta, sequence (O00329 whole entry, canonical isoform): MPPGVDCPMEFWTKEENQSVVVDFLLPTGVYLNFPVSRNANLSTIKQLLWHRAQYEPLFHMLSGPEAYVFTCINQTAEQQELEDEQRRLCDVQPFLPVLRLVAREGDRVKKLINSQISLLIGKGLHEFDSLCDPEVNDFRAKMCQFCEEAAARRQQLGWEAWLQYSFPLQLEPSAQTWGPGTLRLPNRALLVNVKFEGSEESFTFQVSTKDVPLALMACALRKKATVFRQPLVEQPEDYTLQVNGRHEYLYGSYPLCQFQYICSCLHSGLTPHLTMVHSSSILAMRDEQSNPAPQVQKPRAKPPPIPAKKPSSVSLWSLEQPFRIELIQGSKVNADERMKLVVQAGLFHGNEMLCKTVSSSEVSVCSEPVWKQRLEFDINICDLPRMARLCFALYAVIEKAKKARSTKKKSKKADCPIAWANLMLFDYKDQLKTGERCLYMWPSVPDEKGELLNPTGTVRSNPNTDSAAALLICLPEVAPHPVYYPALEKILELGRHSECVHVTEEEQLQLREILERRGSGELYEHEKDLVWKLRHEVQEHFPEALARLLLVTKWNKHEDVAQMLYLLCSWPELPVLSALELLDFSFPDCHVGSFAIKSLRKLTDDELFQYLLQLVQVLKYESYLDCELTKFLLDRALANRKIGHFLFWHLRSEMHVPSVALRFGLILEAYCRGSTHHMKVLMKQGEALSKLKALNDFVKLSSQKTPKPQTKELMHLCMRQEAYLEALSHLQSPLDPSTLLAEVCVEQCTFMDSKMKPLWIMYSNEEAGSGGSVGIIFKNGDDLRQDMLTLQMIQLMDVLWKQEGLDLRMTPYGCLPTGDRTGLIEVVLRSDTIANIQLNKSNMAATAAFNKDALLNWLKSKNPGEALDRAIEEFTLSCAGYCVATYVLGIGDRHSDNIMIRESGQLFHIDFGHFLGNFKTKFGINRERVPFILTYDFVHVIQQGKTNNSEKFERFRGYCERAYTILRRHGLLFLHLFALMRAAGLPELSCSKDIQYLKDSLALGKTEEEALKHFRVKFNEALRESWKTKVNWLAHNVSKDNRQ
PI3Kdelta, sequence (P27986 whole entry partner, canonical isoform): as the sequence (P27986 whole entry partner, canonical isoform) above

SMILES	IC50 (PI3Kdelta)	Selectivity versus PI3Kalpha (PI3Kalpha)
CCn1ncc(-c2nc3c(N[C@H](Cc4ccccc4)C(=O)N4CCOCC4)ncnc3n2C)c1C [Compound 2-1, N-[(1R)-1-benzyl-2-morpholin-4-yl-2-oxoethyl]-8-(1-ethyl-5-methyl-1H-pyrazol-4-yl)-9-methyl-9H-purin-6-amine]	15 nM	>10
CCn1ncc(-c2nc3c(N[C@@H](Cc4ccccc4)C(=O)N4CCOCC4)ncnc3n2C)c1C [Compound 2-2, N-[(1S)-1-benzyl-2-morpholin-4-yl-2-oxoethyl]-8-(1-ethyl-5-methyl-1H-pyrazol-4-yl)-9-methyl-9H-purin-6-amine]	59 nM	>10
CCn1c(-c2cnc(C)nc2)nc2c(NC3(C(=O)N4CCC(F)(F)CC4)CC3)ncnc21 [Compound 2-3, N-{1-[(4,4-difluoropiperidin-1-yl)carbonyl]cyclopropyl}-9-ethyl-8-(2-methylpyrimidin-5-yl)-9H-purin-6-amine]	590 nM	>10
CC[C@H](Nc1ncnc2c1nc(C(F)F)n2CC)C(=O)N1C[C@@H](C)O[C@@H](C)C1 [Compound 2-4, 8-(difluoromethyl)-N-[(1S)-1-{[(cis)-2,6-dimethylmorpholin-4-yl]carbonyl}propyl]-9-ethyl-9H-purin-6-amine]	99 nM	>10
CCn1c(C(F)F)nc2c(N[C@@H](C)C(=O)N3C[C@@H](C)O[C@@H](C)C3)ncnc21 [Compound 2-5, 8-(difluoromethyl)-N-{(1S)-2-[(cis)-2,6-dimethylmorpholin-4-yl]-1-methyl-2-oxoethyl}-9-ethyl-9H-purin-6-amine]	230 nM	>10
CC[C@H](Nc1ncnc2c1nc(-c1cnc(C)nc1)n2CC)C(=O)N1CCS(=O)(=O)CC1 [Compound 2-8, N-{(1S)-1-[(1,1-dioxidothiomorpholin-4-yl)carbonyl]propyl}-9-ethyl-8-(2-methylpyrimidin-5-yl)-9H-purin-6-amine]	31 nM	>10
CC[C@H](Nc1ncnc2c1nc(-c1cnc(C)nc1)n2CC)C(=O)N1CCC(OCCOC)CC1 [Compound 2-10, 9-ethyl-N-[(1S)-1-{[4-(2-methoxyethoxy)piperidin-1-yl]carbonyl}propyl]-8-(2-methylpyrimidin-5-yl)-9H-purin-6-amine]	62 nM	>10
CC[C@H](Nc1ncnc2c1nc(-c1cnc(C)nc1)n2CC)C(=O)N1CC(C(F)F)C1 [Compound 2-11, N-[(1S)-1-{[3-(difluoromethyl)azetidin-1-yl]carbonyl}propyl]-9-ethyl-8-(2-methylpyrimidin-5-yl)-9H-purin-6-amine]	60 nM	>10
CC[C@H](Nc1ncnc2c1nc(-c1cnc(C)nc1)n2CC)C(=O)N1CCC(C#N)CC1 [Compound 2-13, 1-[(2S)-2-{[9-ethyl-8-(2-methylpyrimidin-5-yl)-9H-purin-6-yl]amino}butanoyl]piperidine-4-carbonitrile]	26 nM	>10
CC[C@H](Nc1ncnc2c1nc(-c1cnc(C)nc1)n2CC)C(=O)N1CC[C@H](F)C1 [Compound 2-15, 9-ethyl-N-[(1S)-1-{[(3S)-3-fluoropyrrolidin-1-yl]carbonyl}propyl]-8-(2-methylpyrimidin-5-yl)-9H-purin-6-amine]	37 nM	>10
CC[C@H](Nc1ncnc2c1nc(-c1cnc(C)nc1)n2CC)C(=O)N1CC[C@@H](F)C1 [Compound 2-16, 9-ethyl-N-[(1S)-1-{[(3R)-3-fluoropyrrolidin-1-yl]carbonyl}propyl]-8-(2-methylpyrimidin-5-yl)-9H-purin-6-amine]	112 nM	>10
CC[C@H](Nc1ncnc2c1nc(-c1cnc(C)nc1)n2CC)C(=O)N1CC(OC)C1 [Compound 2-17, 9-ethyl-N-{(1S)-1-[(3-methoxyazetidin-1-yl)carbonyl]propyl}-8-(2-methylpyrimidin-5-yl)-9H-purin-6-amine]	74 nM	>10
CC[C@H](Nc1ncnc2c1nc(-c1cnc(C)nc1)n2CC)C(=O)N1CCCOCC1 [Compound 2-25, 9-ethyl-8-(2-methylpyrimidin-5-yl)-N-[(1S)-1-(1,4-oxazepan-4-ylcarbonyl)propyl]-9H-purin-6-amine]	21 nM	>10

These reach a lower IC50 (PI3Kdelta). Values come first.

IC50 (PI3Kdelta)	Selectivity versus PI3Kalpha (PI3Kalpha)	SMILES
14 nM	>10	CC[C@H](Nc1ncnc2c1nc(-c1cnc(C)nc1)n2CC)C(=O)N1CC[C@@H]2CCCC[C@@H]2C1 [Compound 2-20, 9-ethyl-8-(2-methylpyrimidin-5-yl)-N-{(1S)-1-[(cis)-octahydroisoquinolin-2(1H)-ylcarbonyl]propyl}-9H-purin-6-amine]
14 nM	>10	CC[C@H](Nc1ncnc2c1nc(-c1cnc(C)nc1)n2CC)C(=O)N1CC2(CCCC2)C1 [Compound 2-21, N-[(1S)-1-(2-azaspiro[3.4]oct-2-ylcarbonyl)propyl]-9-ethyl-8-(2-methylpyrimidin-5-yl)-9H-purin-6-amine]
11 nM	>10	CC[C@H](Nc1ncnc2c1nc(-c1cnc(C)nc1)n2CC)C(=O)N1CCCC(F)(F)C1 [Compound 2-12, N-{(1S)-1-[(3,3-difluoropiperidin-1-yl)carbonyl]propyl}-9-ethyl-8-(2-methylpyrimidin-5-yl)-9H-purin-6-amine]
9.1 nM	>10	CC[C@H](Nc1ncnc2c1nc(-c1cnc(C)nc1)n2CC)C(=O)N1C[C@H](C)O[C@@H](C)C1 (stereo in doubt) [Compound 2-36, N-[(1S)-1-{[(trans)-2,6-dimethylmorpholin-4-yl]carbonyl}propyl]-9-ethyl-8-(2-methylpyrimidin-5-yl)-9H-purin-6-amine]
6.1 nM	>10	CC[C@H](Nc1ncnc2c1nc(-c1cnc(C)nc1)n2CC)C(=O)N1C[C@@H](C)O[C@@H](C)C1 [Compound 2-6, N-[(1S)-1-{[(cis)-2,6-dimethylmorpholin-4-yl]carbonyl}propyl]-9-ethyl-8-(2-methylpyrimidin-5-yl)-9H-purin-6-amine]
2.8 nM	>10	CC[C@H](Nc1ncnc2c1nc(-c1ccc(C(F)(F)F)nc1)n2CC)C(=O)N1C[C@@H](C)O[C@@H](C)C1 [Compound 2-7, N-[(1S)-1-{[(cis)-2,6-dimethylmorpholin-4-yl]carbonyl}propyl]-9-ethyl-8-[6-(trifluoromethyl)pyridin-3-yl]-9H-purin-6-amine]

Source: US10221178B2, “Purine inhibitors of human phosphatidylinositol 3-kinase delta” (MERCK SHARP & DOHME CORP., priority 2015, dated 2019)
